Data on two compounds can be found in patent publication US8338480B2, “Combination treatment of metabolic disorders” (Wellstat Therapeutics Corporation, priority 2006, dated 2012).

Assay type in all cases: in vivo
One test deals with Male C57B1/6 mice. Kind of test: Food intake and body weight of male C57Bl/6 mice under restricted feeding (Example 3). Particulars: for Post-treatment Food Intake (5 Hour): 5 hour meal; for Change in Body weight % / Change in Body weight (grams ± SEM) / Post-treatment Body weight: restricted feeding. The procedure: Animals. […] Food was withheld for the remainder of each day. Because of the restricted feeding time, the mice eat less than under ad libitum food availability. Therefore, reduction of food intake in this model requires a drug effect sufficient to overcome the hunger stimulus provided by subnormal daily food intake. Drug Administration. Groups of 10 mice each (individually weighed and marked, divided into 5/cage and trained and monitored as above; were dosed once per day with Compound BI (100 mg/kg), rosiglitazone (3 mg/kg), both drugs, or vehicle by oral gavage at 8 AM for four consecutive days. Comparator groups receiving appetite modulators not suitable for oral dosing (PYY and cerulenin) received intraperitoneal injections at 8 AM for four consecutive days. […] [table]

For test [1], the system named is Gold Thioglucose-obese (GTG) mice. As to the kind of experiment: Body weight and cumulative food intake in gold thioglucose-obese mice (Example 1). To be noted: for Δ BW (g) 0-5 Weeks / Body Weight (g ± SEM) Week 1 / Body Weight (g ± SEM) Week 4 / Body Weight (g ± SEM) Week 5: GTG mice; for Cumulative Food Intake / Cumulative Food Intake (grams): per cage of 5 mice. Here is the method:
Systemic administration of gold thioglucose (GTG) damages glucose-sensing neurons in the hypothalamus, and consequently impairs regulation of satiety, leading to chronic hyperphagia and consequent obesity. Male C57BL/6J mice, weighing 22 to 25 grams received gold thioglucose (Sigma Chemical Company, St. Louis Mo.) by intraperitoneal injection (500 mg/kg). Mice were given a high fat diet (45% Kcal fat; D12451, Research Diets, New Brunswick, N.J.) for 8 weeks to exacerbate obesity.
Mice were then divided into groups comprising 5 mice each, sorted so that each group had similar mean body weights (approximately 47 grams). Mice received single daily oral treatment with Compound BI, rosiglitazone or combinations of the two drugs. A group of lean control mice on a standard low fat rodent chow was also included.
• 1. Vehicle (1% hydroxypropylmethylcellulose) • 2. Compound BI 30 mg/kg • 3. Compound BI 100 mg/kg • 4. Rosiglitazone (RSG) 3 mg/kg • 5. RSG 3 mg/kg+Compound BI 30 mg/kg • 6. RSG 3 mg/kg+Compound BI 100 mg/kg • 7. Lean Control (no treatment)

The test system of another test is db/db mice. As to the kind of experiment: Serum glucose in db/db mice treated for two weeks (Example 6). Particulars: for Glucose / Glucose (% Control): two weeks daily oral; for Glucose (% Control): vehicle = 100. Here is the method: A minimum of 7 days was allowed for adaptation after arrival.
Treatment cohorts were given daily oral doses of vehicle, Compound BI (100 mg/kg/day), rosiglitazone (RSG; 3 mg/kg/day) or a combination of the two drugs for 2 weeks. At the end of the treatment period epididymal fat pads were excised, frozen and subsequently processed for measurement of UCP1 by Western Blot analysis. Blood samples were also collected prior to sacrifice via the retro-orbital plexus, and processed and analyzed for serum glucose (AniLytics, Inc.; Gaithersburg Md.).

The test system of test [2] is Uncoupling Protein 1 (UCP1). Kind of test: UCP1 content of white adipose tissue by Western blot in db/db mice (Example 6). To be noted: for WAT UCP1 (relative light units): db/db mice epididymal fat pads, two weeks daily oral. An excerpt:
Uncoupling Protein 1 (UCP1) is a protein that can dissipate metabolic energy when expressed in the mitochondrial membrane. It is present in brown adipose tissue (BAT; the brown color is due to a higher density of mitochondria than in white adipose tissue) in small mammals where its main function is to generate heat, but it can also serve to accelerate combustion of fatty acids. This latter function is especially important when UCP1 is expressed in tissues other than brown fat, since depots of brown fat are limited in humans Expression of UCP1 in white fat alters the functional phenotype of the tissue from fat storage to fat combustion. Transgenic mice expressing UCP1 in white adipose tissue are resistant to obesity and diabetes induced by a high fat diet. Pharmacological induction of UCP1 expression in white adipose tissue is therefore an attractive strategy for promoting weight reduction and resistance to body weight gain. […]
Treatment cohorts were given daily oral doses of vehicle, Compound BI (100 mg/kg/day), rosiglitazone (RSG; 3 mg/kg/day) or a combination of the two drugs for 2 weeks. […] Blood samples were also collected prior to sacrifice via the retro-orbital plexus, and processed and analyzed for serum glucose (AniLytics, Inc.; Gaithersburg Md.). […]
The membrane was washed 3 times in TBST at room temperature, and then incubated with a primary anti UCPI antibody (Chemicon Rabbit anti-mouse UCP-1, catalogue #AB3036) for 1 hr at RT (room temperature) in a sealed bag. […] The membrane was washed 6×7 min in TBST at room temperature, and then incubated with ECL (enhanced chemiluminescence) reagent (Amersham) for 1 min, and the relative amounts of UCP1 in tissue samples were quantified by densitometry of the images on X-ray film resulting from exposure to light from the chemiluminescence reaction, and expressed as relative light units (RLU).
(A western blot detects proteins with antibodies after separation by electrophoresis.)

The subject of the next test is Adiponectin. Kind of test: Serum adiponectin in db/db mice after two weeks (Example 4). Particulars: for Adiponectin ± SD: db/db mice serum. An excerpt: Adiponectin is an glycoprotein secreted from white adipose tissue. Adiponectin improves insulin sensitive in other tissues, e.g. muscle and liver, and is also protective against atherosclerosis. Thiazolidinedione antidiabetic agents such as rosiglitazone or pioglitazone act largely via action at the PPAR-gamma, a nuclear receptor involved in regulation of fuel metabolism. PPAR-gamma agonists enhance adiponectin production by adipose tissue, and this may contribute to their beneficial effects in diabetes and related metabolic disorders.
• 8. Vehicle (1% hydroxypropylmethylcellulose) • 9. Compound BI 100 mg/kg • 10. Rosiglitazone (RSG) 3 mg/kg • 11. Compound BI 100 mg/kg+RSG 3 mg/kg • 12. Compound CF 100 mg/kg • 13. Compound CF 100 mg/kg+RSG 3 mg/kg • 14. Compound CT 100 mg/kg+RSG 3 mg/kg • 15. […]
After two weeks, blood samples were collected from the retro-orbital sinus and processed for serum chemistry measurements.

[3] abbreviates: Compound BI 100 mg/kg oral once per day.
Setting [4] is: Compound BI 30 mg/kg oral daily.
[5] abbreviates: Compound BI 100 mg/kg oral daily.
Where [6] appears, read: GTG-obese mice, 5 weeks, Compound BI 30 mg/kg.
[7] abbreviates: GTG-obese mice, 5 weeks, Compound BI 100 mg/kg.
The mark [8] stands for this setting: Rosiglitazone 3 mg/kg oral once per day.
Setting [9] is: GTG-obese mice, 5 weeks, RSG 3 mg/kg.

Structures can show the parent of a compound that is named as a salt.

Regarding `Cc1cccc(C)c1COc1cccc(C(=O)CCC(=O)O)c1` [Compound BI, 4-(3-(2,6-Dimethylbenzyloxy)phenyl)-4-oxobutyric acid], in the test on Male C57B1/6 mice (setting [3]), the “Post-treatment Food Intake (5 Hour)” value came out at 2.00 ± 0.18 grams, the “Change in Body weight %” value is −1.90 ± 0.73%, the “Change in Body weight (grams ± SEM)” value is recorded as −0.40 ± 0.15 grams and the “Post-treatment Body weight” value is 20.57 ± 0.51 grams. Moreover, in test [1] (setting [4]), the “Δ BW (g) 0-5 Weeks” value was -9.8 ± 0.2 g, the “Body Weight (g ± SEM) Week 1” value is listed as 39.8 ± 0.9 g, the “Body Weight (g ± SEM) Week 4” value is 40.0 ± 1.1 g and the “Body Weight (g ± SEM) Week 5” value is listed as 37.4 ± 0.9 g. In addition, in test [1] (setting [5]), the “Δ BW (g) 0-5 Weeks” value was -14.6 ± 0.3 g, the “Body Weight (g ± SEM) Week 1” value is recorded as 38.4 ± 1.1 g, the “Body Weight (g ± SEM) Week 4” value stood at 34.0 ± 1.0 g and the “Body Weight (g ± SEM) Week 5” value was 33.0 ± 1.1 g. Besides, the “total food and calorie consumption (in words)” value in test [1] (GTG-obese mice, 5 weeks) was “reduced total food and calorie consumption”. For the same compound, in test [1] (setting [6]), the “Cumulative Food Intake” value was determined as 1048 kcal and the “Cumulative Food Intake (grams)” value came to 223 grams. In test [1] (setting [7]), the “Cumulative Food Intake” value was 902 kcal and the “Cumulative Food Intake (grams)” value turned out to be 192 grams. The “body weight (in words)” value in test [1] (GTG-obese mice, over the course of 5 weeks) is reported as “decrease in body weight”. Further, the “serum glucose (in words)” value in the test on db/db mice (2 weeks, Compound BI 100 mg/kg/day, RSG 3 mg/kg/day, alone or combined) is “reduced serum glucose relative to vehicle treated control animals”. In the test on db/db mice (Cpd. BI 100 mg/kg), the “Glucose” value was determined as 302.0 ± 40.7 mg/dL and the “Glucose (% Control)” value came out at 44 ± 6 % Control. Besides, the “WAT UCP1 (relative light units)” value in test [2] (Cpd. BI 100 mg/kg) worked out at 322 ± 94 relative light units. In addition, in test [2] (db/db mice, 2 weeks, Compound BI 100 mg/kg/day, RSG 3 mg/kg/day, alone or combined), the “UCP1 content of white adipose tissue (in words)” value is “slightly the UCP1 content of elevated white adipose tissue”. Further, the “Adiponectin ± SD” value in the test with Adiponectin (compound alone 100 mg/kg) is reported as 9.3 ± 4.8 micrograms/ml. Moreover, the “effect on adiponectin with concurrent rosiglitazone (in words)” value with Adiponectin (db/db mice, 100 mg/kg + RSG 3 mg/kg) is recorded as “strongly amplify the effect of concurrent rosiglitazone on adiponectin”. For the same compound, the “serum adiponectin, individual agents (in words)” value with Adiponectin (db/db mice, agent alone) is on record as “did not elevate serum adiponectin levels”.

In the case of `CN(CCOc1ccc(CC2SC(=O)NC2=O)cc1)c1ccccn1` (stereo not shown) [RSG, rosiglitazone maleate, reference compound], in the test on Male C57B1/6 mice (setting [8]), the “Post-treatment Food Intake (5 Hour)” value was found to be 2.21 ± 0.15 grams, the “Change in Body weight %” value was −0.55 ± 0.44%, the “Change in Body weight (grams ± SEM)” value is recorded as −0.12 ± 0.09 grams and the “Post-treatment Body weight” value came out at 20.76 ± 0.39 grams. Moreover, in test [1] (RSG 3 mg/kg oral daily), the “Δ BW (g) 0-5 Weeks” value was -1.2 ± 0.2 g, the “Body Weight (g ± SEM) Week 1” value was determined as 47.0 ± 1.0 g, the “Body Weight (g ± SEM) Week 4” value is given as 46.0 ± 1.1 g and the “Body Weight (g ± SEM) Week 5” value is listed as 46.3 ± 1.0 g. For the same compound, in test [1] (setting [9]), the “Cumulative Food Intake” value came out at 1293 kcal and the “Cumulative Food Intake (grams)” value was determined as 275 grams. Further, in the test on db/db mice (RSG 3 mg/kg), the “Glucose” value is 403.7 ± 28.0 mg/dL and the “Glucose (% Control)” value turned out to be 59 ± 4 % Control. Further, the “WAT UCP1 (relative light units)” value in test [2] (RSG 3 mg/kg) was determined as 2067 ± 717 relative light units. The “Adiponectin ± SD” value in the test on Adiponectin (RSG 3 mg/kg alone) turned out to be 12.3 ± 3.0 micrograms/ml.
